This experiment deals with T1, human GPBAR1 receptor (Homo sapiens, UniProt Q8TDU6).
T1 construct: expressed in transfected cells
T1 sequence (Q8TDU6 1-330): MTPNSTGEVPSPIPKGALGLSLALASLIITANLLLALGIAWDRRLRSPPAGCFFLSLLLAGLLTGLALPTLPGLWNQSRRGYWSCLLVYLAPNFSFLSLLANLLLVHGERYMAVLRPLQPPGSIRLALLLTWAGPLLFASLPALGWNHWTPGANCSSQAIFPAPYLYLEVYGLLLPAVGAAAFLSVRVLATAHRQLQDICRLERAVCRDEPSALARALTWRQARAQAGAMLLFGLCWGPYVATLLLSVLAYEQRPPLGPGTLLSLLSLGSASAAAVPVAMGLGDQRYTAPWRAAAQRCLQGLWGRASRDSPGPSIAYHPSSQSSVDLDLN
Put plainly: functional cAMP assay in CHO-dhfr(minus) cells expressing human GPBAR1 receptors. The experiment is classed as cell-based. Particulars: human EC50, functional cAMP assay, 30 min at 30° C. Summed up: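 Agonist cAMP read-out: stable GPBAR1 CHO-dhfr− clone, 30 min compound exposure at 30° C following 30 min IBMX (1 mM) preincubation in Krebs Ringer bicarbonate. Time-resolved energy-transfer detection gives EC50; parental CHO cells serve as counter-screen.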

SMILES strings stand for the structures.

A word on the EC50: it is the concentration needed to bring the measured effect to its halfway point. A lower EC50 goes with an effect from little substance.

Molecule `Cc1cc(Cl)ccc1[C@@H](C/C(=N\O)c1ccc(=O)n(C)c1)c1ccc(-c2ccc(NS(C)(=O)=O)cc2)cc1` (single isomer, unassigned) [Example 416, (+)-N-{4′-[1-(4-Chloro-2-methyl-phenyl)-3-[(E)-hydroxyimino]-3-(1-methyl-6-oxo-1,6-dihydro-pyridin-3-yl)-propyl]-biphenyl-4-yl}-methanesulfonamide] yielded a 50% effective concentration (EC50) of 18 nM.
The value for `Cc1cc(/C(C[C@H](c2ccc(-c3nnc(CC(=O)O)o3)cc2)c2ccccc2C)=N/O)ccn1` (single isomer, unassigned) [Example 422, (5-{4-[(−)-3-[(E)-Hydroxyimino]-3-(2-methyl-pyridin-4-yl)-1-o-tolyl-propyl]-phenyl}-[1,3,4]oxadiazol-2-yl)-acetic acid] was 11 nM; that for `Cc1cc(/C(C[C@H](c2ccc(-c3cn(CC(=O)O)nn3)cc2)c2ccccc2C)=N/O)ccn1` (single isomer, unassigned) [Example 425, (4-{4-[(−)-3-[(E)-Hydroxyimino]-3-(2-methyl-pyridin-4-yl)-1-o-tolyl-propyl]-phenyl}-[1,2,3]triazol-1-yl)-acetic acid] was 14 nM; that for `Cc1cc(/C(C[C@H](c2ccc(Br)cc2)c2ccc(F)cc2F)=N/O)ccn1` (single isomer, unassigned) [Example 426, (−)-3-(4-Bromo-phenyl)-3-(2,4-difluoro-phenyl)-1-(2-methyl-pyridin-4-yl)-propan-1-one oxime] was 41 nM.
As for `Cc1cc(/C(C[C@H](c2ccc(N3CCC(C(=O)O)CC3)cc2)c2ccc(F)cc2F)=N/O)ccn1` (single isomer, unassigned) [Example 427, 1-{4-[(−)-1-(2,4-Difluoro-phenyl)-3-[(E)-hydroxyimino]-3-(2-methyl-pyridin-4-yl)-propyl]-phenyl}-piperidine-4-carboxylic acid], the figure is 4 nM; as for `Cc1cc(/C(C[C@@H](c2ccc(N3CCC(C(=O)O)CC3)cc2)c2ccc(F)cc2F)=N/O)ccn1` (single isomer, unassigned) [Example 428, 1-{4-[(+)-1-(2,4-Difluoro-phenyl)-3-[(E)-hydroxyimino]-3-(2-methyl-pyridin-4-yl)-propyl]-phenyl}-piperidine-4-carboxylic acid], 18 nM; as for `Cc1cc(/C(C[C@H](c2ccc(N3C[C@@H]4C(C(=O)O)[C@@H]4C3)cc2)c2ccc(F)cc2F)=N/O)ccn1` (single isomer, unassigned) [Example 429], 2 nM.
The value for `Cc1cc(/C(C[C@@H](c2ccc(N3CCC(CC(=O)O)CC3)cc2)c2ccc(F)cc2F)=N/O)ccn1` (single isomer, unassigned) [Example 430, (1-{4-[(+)-1-(2,4-Difluoro-phenyl)-3-[(E)-hydroxyimino]-3-(2-methyl-pyridin-4-yl)-propyl]-phenyl}-piperidin-4-yl)-acetic acid] was 21 nM; that for `Cc1cc(/C(C[C@H](c2ccc(-c3ccc(C(=O)O)c(F)c3)cc2)c2ccc(Cl)cc2F)=N/O)ccn1` (single isomer, unassigned) [Example 448, 4′-[(−)-1-(4-Chloro-2-fluoro-phenyl)-3-[(E)-hydroxyimino]-3-(2-methyl-pyridin-4-yl)-propyl]-3-fluoro-biphenyl-4-carboxylic acid] was 18 nM.
On to `Cc1cc(/C(C[C@@H](c2ccc(-c3ccc(C(=O)O)c(F)c3)cc2)c2ccc(Cl)cc2F)=N/O)ccn1` (single isomer, unassigned) [Example 449, 4′-[(+)-1-(4-Chloro-2-fluoro-phenyl)-3-[(E)-hydroxyimino]-3-(2-methyl-pyridin-4-yl)-propyl]-3-fluoro-biphenyl-4-carboxylic acid], for which the concentration giving a half-maximal response (EC50) amounted to 9 nM. Compared with the last molecule, the EC50 is about 2-fold lower.
The molecule `Cc1cc(/C(C[C@@H](c2ccc(-c3ccc(C(=O)O)c(Cl)c3)cc2)c2ccc(Cl)cc2F)=N/O)ccn1` (single isomer, unassigned) [Example 453, (+)-3-Chloro-4′-[1-(4-chloro-2-fluoro-phenyl)-3-[(E)-hydroxyimino]-3-(2-methyl-pyridin-4-yl)-propyl]-biphenyl-4-carboxylic acid] had a 50% effective concentration (EC50) of 5 nM.
`Cn1cc(/C(CC(c2ccc(-c3ccc(CC(=O)O)cc3)cc2)c2ccc(Cl)cc2F)=N/O)ccc1=O` (single isomer, unassigned) [Example 461, {4′-[(−)-1-(4-Chloro-2-fluoro-phenyl)-3-[(E)-hydroxyimino]-3-(1-methyl-6-oxo-1,6-dihydro-pyridin-3-yl)-propyl]-biphenyl-4-yl}-acetic acid]: the EC50 came out at 156 nM.
As for `Cn1cc(/C(CC(c2ccc(-c3ccc(CC(=O)O)cc3)cc2)c2ccc(Cl)cc2F)=N/O)ccc1=O` (single isomer, unassigned) [Example 462, {4′-[(+)-1-(4-chloro-2-fluoro-phenyl)-3-[(E)-hydroxyimino]-3-(1-methyl-6-oxo-1,6-dihydro-pyridin-3-yl)-propyl]-biphenyl-4-yl}-acetic acid], the figure is 153 nM.
The value for `Cn1cc(/C(C[C@H](c2ccc(-c3ccc(C(=O)O)c(F)c3)cc2)c2ccc(Cl)cc2F)=N/O)ccc1=O` (single isomer, unassigned) [Example 463, 4′-[(−)-1-(4-Chloro-2-fluoro-phenyl)-3-[(E)-hydroxyimino]-3-(1-methyl-6-oxo-1,6-dihydro-pyridin-3-yl)-propyl]-3-fluoro-biphenyl-4-carboxylic acid] was 154 nM; that for `Cn1cc(/C(C[C@@H](c2ccc(-c3ccc(C(=O)O)c(F)c3)cc2)c2ccc(Cl)cc2F)=N/O)ccc1=O` (single isomer, unassigned) [Example 464, 4′-[(+)-1-(4-Chloro-2-fluoro-phenyl)-3-[(E)-hydroxyimino]-3-(1-methyl-6-oxo-1,6-dihydro-pyridin-3-yl)-propyl]-3-fluoro-biphenyl-4-carboxylic acid] was 152 nM.
The value for `Cc1cc(C(=O)O)ccc1-c1ccc([C@@H](C/C(=N\O)c2ccc(=O)n(C)c2)c2ccc(Cl)cc2F)cc1` (single isomer, unassigned) [Example 465, 4′-[(−)-1-(4-Chloro-2-fluoro-phenyl)-3-[(E)-hydroxyimino]-3-(1-methyl-6-oxo-1,6-dihydro-pyridin-3-yl)-propyl]-2-methyl-biphenyl-4-carboxylic acid] was 350 nM.
In the case of `Cc1cc(C(=O)O)ccc1-c1ccc(C(C/C(=N\O)c2ccc(=O)n(C)c2)c2ccc(Cl)cc2F)cc1` (single isomer, unassigned) [Example 466, 4′-[(+)-1-(4-Chloro-2-fluoro-phenyl)-3-[(E)-hydroxyimino]-3-(1-methyl-6-oxo-1,6-dihydro-pyridin-3-yl)-propyl]-2-methyl-biphenyl-4-carboxylic acid], the concentration for a half-maximal effect (EC50) worked out at 347 nM.
In turn, `CCOC(=O)c1ccc(-c2ccc([C@H](C/C(=N\O)c3ccc(=O)n(C)c3)c3ccc(Cl)cc3F)cc2)s1` (single isomer, unassigned) [Example 469, 5-{4-[(+)-1-(4-Chloro-2-fluoro-phenyl)-3-[(E)-hydroxyimino]-3-(1-methyl-6-oxo-1,6-dihydro-pyridin-3-yl)-propyl]-phenyl}-thiophene-2-carboxylic acid ethyl ester] registered an EC50 of 420 nM.

These data come from patent publication US8765730B2 (Hoffmann-La Roche Inc, priority 2010, dated 2014).
